# Source: patent US7521418B2, “Use of a polyene macrolide antifungal agent in combination with a glycopeptide antibacterial agent” (Theravance, Inc., priority 2003, dated 2009)
# Legend:
# A. fumigatus ATCC 14110 = assay: Checkerboard MIC assay, FICI; format: cell-based, Aspergillus fumigatus; details: combination with Compound 1
# Text: (§1) The following assay was used to determine the minimum inhibitory concentration (MIC) and fractional inhibitory concentration index (FICI) for combinations of an antifungal agent and a glycopeptide antibacterial agent. This assay and methods for calculating FICI are well known in the art. See, for example, Eliopoulos, E. G. and R. Moellering, Jr. “Antimicrobial Combinations” in Antibiotics in Laboratory Medicine, edited by V. Lorian, 4th Ed., Williams & Wilkins, Baltimore, MD, pp. 330-396 (1996); […] et al., Antimicrobial Agents and Chemotherapy 47(4):1416-1418 (2003); or […] et al., Antimicrobial Agents and Chemotherapy 46(10):3323-3326 (2002). […] The MIC of the glycopeptide antibacterial agent determined from this experiment was used in FIC calculations. […]
# [1] = test system: F. moniliforme ATCC 38159; assay: Checkerboard MIC assay, FICI; format: cell-based, Fusarium moniliforme; details: combination with Compound 1
# Text: as §1
Structure (SMILES),FICI (A. fumigatus ATCC 14110),FICI [1]
C[C@@H]1[C@H](O)[C@@H](C)/C=C/C=C/C=C/C=C/C=C/C=C/C=C/[C@H](O[C@@H]2O[C@H](C)[C@@H](O)[C@H](N)[C@@H]2O)C[C@@H]2O[C@](O)(C[C@@H](O)C[C@@H](O)[C@H](O)CC[C@@H](O)C[C@@H](O)CC(=O)O[C@H]1C)C[C@H](O)[C@H]2C(=O)O [Amphotericin B],0.31,0.53
C[C@@H]1[C@H](O)[C@@H](C)/C=C/C=C/CC/C=C/C=C/C=C/C=C/C(O[C@H]2O[C@H](C)[C@@H](O)[C@H](N)[C@@H]2O)CC2O[C@](O)(CC(O)C(O)CCC(O)CC(O)CC(O)CC(=O)O[C@H]1C)CC(O)C2C(=O)O (stereo partly shown) [Nystatin],1.25,0.51
